Measured values taken from patent EP4467141A1, “PYRAZOLO-QUINOLINES AS SELECTIVE INHIBITORS OF GENOTOXIC STRESS-INDUCED IKK/NF- KB PATHWAYS FOR CANCER THERAPY” (Max-Delbrück-Centrum für Molekulare Medizin in der …, priority 2023, dated 2024).

How the values were obtained:
Experiment in all cases: Kinase panel study
Format in all cases: biochemical
Conditions in all cases: read-out: Percentage of inhibition; for inhibition at 1 µM: 1000nM; for inhibition at 10 µM: 10000nM
CAMK4 (CaMKIV) = target: T1, CAMK4 (CaMKIV) (Homo sapiens, UniProt Q16566)
T1 construct: purchased Thermo Fisher Scientific
In short: (§1)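 Outsourced panel screen. Format: ZLyte or Adapta, run per the manufacturer's procedures. Read-out: inhibition (%) at a single dose of 10 µM or 1 µM; IC50s also generated.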

FLT3 D835Y = target: T2, FLT3 D835Y (Homo sapiens, UniProt P36888, D835Y)
T2 construct: purchased Thermo Fisher Scientific
T2 sequence (P36888 27-993 D835Y): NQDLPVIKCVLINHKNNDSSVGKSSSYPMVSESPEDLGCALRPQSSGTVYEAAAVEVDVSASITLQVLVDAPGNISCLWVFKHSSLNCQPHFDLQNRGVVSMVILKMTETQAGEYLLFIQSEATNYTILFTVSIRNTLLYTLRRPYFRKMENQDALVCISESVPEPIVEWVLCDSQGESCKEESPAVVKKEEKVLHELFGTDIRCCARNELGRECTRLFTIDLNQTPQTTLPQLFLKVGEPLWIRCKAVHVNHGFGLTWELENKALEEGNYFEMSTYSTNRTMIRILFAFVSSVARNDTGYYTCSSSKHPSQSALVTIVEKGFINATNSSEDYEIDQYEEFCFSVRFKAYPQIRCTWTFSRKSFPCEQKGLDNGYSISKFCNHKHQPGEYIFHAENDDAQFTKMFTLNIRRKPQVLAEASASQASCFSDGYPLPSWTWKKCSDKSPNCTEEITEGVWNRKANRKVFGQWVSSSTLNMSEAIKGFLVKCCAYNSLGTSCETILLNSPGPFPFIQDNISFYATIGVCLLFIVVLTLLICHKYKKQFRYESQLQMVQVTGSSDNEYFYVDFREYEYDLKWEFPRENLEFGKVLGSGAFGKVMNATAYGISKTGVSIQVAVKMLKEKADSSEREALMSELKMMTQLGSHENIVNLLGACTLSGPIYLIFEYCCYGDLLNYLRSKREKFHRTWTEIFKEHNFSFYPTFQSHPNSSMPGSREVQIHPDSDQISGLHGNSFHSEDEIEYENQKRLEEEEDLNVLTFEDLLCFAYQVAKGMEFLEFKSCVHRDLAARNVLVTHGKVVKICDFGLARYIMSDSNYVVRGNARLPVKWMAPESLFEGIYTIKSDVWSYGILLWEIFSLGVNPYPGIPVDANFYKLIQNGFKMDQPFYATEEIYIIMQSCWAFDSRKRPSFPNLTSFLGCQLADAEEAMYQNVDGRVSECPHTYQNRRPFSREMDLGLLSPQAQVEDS
In short: as §1

MAPKAPK3 = target: T3, MAPKAPK3 (Homo sapiens, UniProt Q16644)
T3 construct: purchased Thermo Fisher Scientific
T3 sequence (Q16644 whole entry): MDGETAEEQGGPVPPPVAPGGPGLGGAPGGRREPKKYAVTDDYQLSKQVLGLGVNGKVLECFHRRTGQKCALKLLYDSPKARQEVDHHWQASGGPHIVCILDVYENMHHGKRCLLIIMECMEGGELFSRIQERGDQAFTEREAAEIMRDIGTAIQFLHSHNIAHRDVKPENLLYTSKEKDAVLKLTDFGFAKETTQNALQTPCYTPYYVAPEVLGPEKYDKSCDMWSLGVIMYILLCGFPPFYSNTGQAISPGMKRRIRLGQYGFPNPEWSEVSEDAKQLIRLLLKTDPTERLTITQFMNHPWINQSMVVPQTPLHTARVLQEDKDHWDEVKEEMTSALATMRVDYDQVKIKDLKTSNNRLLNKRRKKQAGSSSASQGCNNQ
In short: as §1

NEK2 = target: T4, NEK2 (Homo sapiens, UniProt P51955)
T4 construct: purchased Thermo Fisher Scientific
T4 sequence (P51955 1-445): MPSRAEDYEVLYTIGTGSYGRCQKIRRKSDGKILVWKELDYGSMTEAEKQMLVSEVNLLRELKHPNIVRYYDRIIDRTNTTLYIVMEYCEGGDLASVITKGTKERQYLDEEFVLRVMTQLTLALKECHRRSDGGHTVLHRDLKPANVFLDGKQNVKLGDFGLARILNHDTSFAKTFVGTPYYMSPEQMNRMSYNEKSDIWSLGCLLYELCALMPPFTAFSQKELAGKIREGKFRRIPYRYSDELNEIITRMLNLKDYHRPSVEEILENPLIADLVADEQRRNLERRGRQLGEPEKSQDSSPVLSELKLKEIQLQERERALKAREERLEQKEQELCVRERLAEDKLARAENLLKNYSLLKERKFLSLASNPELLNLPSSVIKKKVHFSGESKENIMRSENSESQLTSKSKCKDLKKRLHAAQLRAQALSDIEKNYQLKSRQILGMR
In short: as §1

RET V804L = target: T5, RET V804L (Homo sapiens, UniProt P07949, V804L)
T5 construct: purchased Thermo Fisher Scientific
T5 sequence (P07949 29-1114 V804L): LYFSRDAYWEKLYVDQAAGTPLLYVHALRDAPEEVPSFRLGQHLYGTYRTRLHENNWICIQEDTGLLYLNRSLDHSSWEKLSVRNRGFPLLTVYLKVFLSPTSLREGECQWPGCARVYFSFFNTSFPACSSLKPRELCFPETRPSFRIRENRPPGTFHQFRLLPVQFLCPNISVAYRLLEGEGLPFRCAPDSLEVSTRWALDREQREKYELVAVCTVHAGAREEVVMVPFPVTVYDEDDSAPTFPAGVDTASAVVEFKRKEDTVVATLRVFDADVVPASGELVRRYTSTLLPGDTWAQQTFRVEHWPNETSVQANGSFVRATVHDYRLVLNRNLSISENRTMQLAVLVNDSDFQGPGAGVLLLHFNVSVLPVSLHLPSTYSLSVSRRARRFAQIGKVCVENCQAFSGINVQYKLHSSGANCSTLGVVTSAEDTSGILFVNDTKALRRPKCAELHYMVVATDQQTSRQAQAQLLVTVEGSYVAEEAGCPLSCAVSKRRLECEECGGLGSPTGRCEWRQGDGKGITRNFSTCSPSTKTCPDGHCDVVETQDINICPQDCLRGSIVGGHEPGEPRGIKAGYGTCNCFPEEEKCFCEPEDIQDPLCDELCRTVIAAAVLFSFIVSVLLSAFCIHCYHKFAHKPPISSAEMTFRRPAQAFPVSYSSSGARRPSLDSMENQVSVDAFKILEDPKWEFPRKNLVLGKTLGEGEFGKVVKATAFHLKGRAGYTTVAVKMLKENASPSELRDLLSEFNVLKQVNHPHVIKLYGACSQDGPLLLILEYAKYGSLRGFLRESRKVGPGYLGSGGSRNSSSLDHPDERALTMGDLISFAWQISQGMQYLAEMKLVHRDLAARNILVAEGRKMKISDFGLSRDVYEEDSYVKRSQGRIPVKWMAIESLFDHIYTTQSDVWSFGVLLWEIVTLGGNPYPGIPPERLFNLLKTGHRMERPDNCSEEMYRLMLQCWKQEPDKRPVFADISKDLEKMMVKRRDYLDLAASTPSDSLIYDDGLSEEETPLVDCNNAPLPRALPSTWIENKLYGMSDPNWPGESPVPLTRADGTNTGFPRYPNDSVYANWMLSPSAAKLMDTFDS
In short: as §1

SMILES	inhibition at 1 µM (CAMK4 (CaMKIV)) [%]	inhibition at 10 µM (CAMK4 (CaMKIV)) [%]	inhibition at 1 µM (FLT3 D835Y) [%]	inhibition at 10 µM (FLT3 D835Y) [%]	inhibition at 1 µM (MAPKAPK3) [%]	inhibition at 10 µM (MAPKAPK3) [%]	inhibition at 1 µM (NEK2) [%]	inhibition at 10 µM (NEK2) [%]	inhibition at 1 µM (RET V804L) [%]	inhibition at 10 µM (RET V804L) [%]
COc1ccc2c(c1OC)c(=O)n1c3ccc(O)cc3c3ccnc2c31 [MW01, 5-Hydroxy-10,11-dimethoxy-9H-benzo[c]indolo[3,2,1-ij][1,5]naphthyridin-9-one]	-3	16	81	92	8	24	-4	0	15	38
COc1ccc2cc3c(N)nn(C(=O)c4cccc(N(C)C)c4)c3nc2c1 [MW05, (3-Amino-7-methoxypyrazolo[3,4-b]quinolin-1-yl)-[3-(dimethylamino)phenyl]methanone]	2	-9	10	15	10	3	-3	1	2	0
